Results reported in patent US20200054633A1 (priority 2017, published 2020).
Entries after “also recorded” stand apart in the source; their conditions may differ. Like-named read-outs stand apart in the source and are kept apart here.

Details: for subjects with nausea / subjects with treatment-emergent diarrhea: Safety Set
From the text: This study followed a randomized, double-blind, placebo-controlled, parallel-group, multicenter design.
Analysis set for safety: Safety Set included all subjects who received at least 1 dose of study drug.

## O=C(O)[C@H]1C2CCC(CC2)[C@@H]1Nc1nc(-c2c[nH]c3ncc(F)cc23)ncc1F [Compound (1), Pimodivir]
600 mg, OST placebo, N=74
  Any TEAE: 39 (52.7%)
  Any TEAE at least possibly related to study medication: 26 (35.1%)
  Any TEAE leading to a temporary stop of study medication: 2 (2.7%)
  Any TEAE leading to permanent stop of study medication: 3 (4.1%)
  Any TEAE with fatal outcome: 0
  Grade 3 TEAE: Anaemia: 0
  Grade 3 TEAE: Balance disorder: 0
  Grade 3 TEAE: Blood and lymphatic system disorders: 1 (1.4%)
  Grade 3 TEAE: Blood creatine phosphokinase increased: 1 (1.4%)
  Grade 3 TEAE: Bronchitis: 0
  Grade 3 TEAE: Constipation: 1 (1.4%)
  Grade 3 TEAE: Diarrhoea: 1 (1.4%)
  Grade 3 TEAE: Fatigue: 0
  Grade 3 TEAE: Gastrointestinal disorders: 2 (2.7%)
  Grade 3 TEAE: General disorders and administration site conditions: 0
  Grade 3 TEAE: Hyperkalaemia: 1 (1.4%)
  Grade 3 TEAE: Infections and infestations: 0
  Grade 3 TEAE: Investigations: 1 (1.4%)
  Grade 3 TEAE: Lymphopenia: 1 (1.4%)
  Grade 3 TEAE: Metabolism and nutrition disorders: 1 (1.4%)
  Grade 3 TEAE: Nausea: 0
  Grade 3 TEAE: Nervous system disorders: 0
  Grade 3 TEAE: Neutropenia: 0
  Grade 3 TEAE: Neutrophil count decreased: 0
  Grade 3 TEAE: Protein urine present: 0
  Grade 3 TEAE: Syncope: 0
  Grade 3 TEAE: Thrombocytopenia: 0
  Grade 3 TEAE: Vomiting: 0
  TEAE: Abdominal discomfort: 1 (1.4%) n (%)
  TEAE: Abdominal pain: 0 n (%)
  TEAE: Abdominal pain upper: 2 (2.7%) n (%)
  TEAE: Abdominal tenderness: 0 n (%)
  TEAE: Alanine aminotransferase increased: 2 (2.7%) n (%)
  TEAE: All events: 39 (52.7%) n (%)
  TEAE: Anaemia: 0 n (%)
  TEAE: Aphthous stomatitis: 0 n (%)
  TEAE: Aspartate aminotransferase increased: 1 (1.4%) n (%)
  TEAE: Atrioventricular block first degree: 0 n (%)
  TEAE: Back pain: 1 (1.4%) n (%)
  TEAE: Bacterial vaginosis: 0 n (%)
  TEAE: Balance disorder: 0 n (%)
  TEAE: Blood and lymphatic system disorders: 3 (4.1%) n (%)
  TEAE: Blood bicarbonate decreased: 0 n (%)
  TEAE: Blood bilirubin decreased: 0 n (%)
  TEAE: Blood bilirubin increased: 0 n (%)
  TEAE: Blood creatine phosphokinase increased: 1 (1.4%) n (%)
  TEAE: Blood creatinine increased: 0 n (%)
  TEAE: Blood glucose increased: 1 (1.4%) n (%)
  TEAE: Blood potassium increased: 1 (1.4%) n (%)
  TEAE: Blood pressure diastolic increased: 1 (1.4%) n (%)
  TEAE: Blood urine: 0 n (%)
  TEAE: Bradycardia: 1 (1.4%) n (%)
  TEAE: Bronchitis: 0 n (%)
  TEAE: Cardiac disorders: 1 (1.4%) n (%)
  TEAE: Constipation: 1 (1.4%) n (%)
  TEAE: Contusion: 1 (1.4%) n (%)
  TEAE: Cough: 1 (1.4%) n (%)
  TEAE: Decreased appetite: 0 n (%)
  TEAE: Dehydration: 0 n (%)
  TEAE: Diabetes mellitus: 0 n (%)
  TEAE: Diarrhoea: 20 (27.0%) n (%)
  TEAE: Dizziness: 2 (2.7%) n (%)
  TEAE: Dry mouth: 1 (1.4%) n (%)
  TEAE: Dry skin: 1 (1.4%) n (%)
  TEAE: Dysgeusia: 0 n (%)
  TEAE: Dyspepsia: 0 n (%)
  TEAE: Dyspnoea: 0 n (%)
  TEAE: Dysuria: 0 n (%)
  TEAE: Ear and labyrinth disorders: 0 n (%)
  TEAE: Ear discomfort: 0 n (%)
  TEAE: Ecchymosis: 0 n (%)
  TEAE: Electrocardiogram ST segment depression: 0 n (%)
  TEAE: Enteritis: 0 n (%)
  TEAE: Fatigue: 0 n (%)
  TEAE: Fungal infection: 0 n (%)
  TEAE: Gamma-glutamyltransferase increased: 1 (1.4%) n (%)
  TEAE: Gastrointestinal disorders: 22 (29.7%) n (%)
  TEAE: General disorders and administration site conditions: 0 n (%)
  TEAE: Glomerular filtration rate decreased: 1 (1.4%) n (%)
  TEAE: Gout: 0 n (%)
  TEAE: HIV antibody positive: 0 n (%)
  TEAE: HIV test positive: 0 n (%)
  TEAE: Haematuria: 0 n (%)
  TEAE: Haemoglobin decreased: 0 n (%)
  TEAE: Haemoglobin increased: 0 n (%)
  TEAE: Headache: 1 (1.4%) n (%)
  TEAE: Hepatic enzyme increased: 1 (1.4%) n (%)
  TEAE: Hepatitis C: 0 n (%)
  TEAE: Herpes simplex: 0 n (%)
  TEAE: Hyperglycaemia: 2 (2.7%) n (%)
  TEAE: Hyperhidrosis: 1 (1.4%) n (%)
  TEAE: Hyperkalaemia: 2 (2.7%) n (%)
  TEAE: Hyperproteinaemia: 0 n (%)
  TEAE: Hypertension: 0 n (%)
  TEAE: Hyperuricaemia: 0 n (%)
  TEAE: Hypokalaemia: 0 n (%)
  TEAE: Hyponatraemia: 0 n (%)
  TEAE: Hypophosphataemia: 0 n (%)
  TEAE: Hypothermia: 0 n (%)
  TEAE: Increased appetite: 1 (1.4%) n (%)
  TEAE: Infections and infestations: 1 (1.4%) n (%)
  TEAE: Injury, poisoning and procedural complications: 1 (1.4%) n (%)
  TEAE: Insomnia: 1 (1.4%) n (%)
  TEAE: Investigations: 10 (13.5%) n (%)
  TEAE: Irritability: 1 (1.4%) n (%)
  TEAE: Labyrinthitis: 0 n (%)
  TEAE: Leukopenia: 1 (1.4%) n (%)
  TEAE: Lymph node pain: 0 n (%)
  TEAE: Lymphadenopathy: 0 n (%)
  TEAE: Lymphopenia: 1 (1.4%) n (%)
  TEAE: Metabolism and nutrition disorders: 5 (6.8%) n (%)
  TEAE: Micturition urgency: 1 (1.4%) n (%)
  TEAE: Middle ear effusion: 0 n (%)
  TEAE: Migraine: 1 (1.4%) n (%)
  TEAE: Muscle spasms: 0 n (%)
  TEAE: Musculoskeletal and connective tissue disorders: 1 (1.4%) n (%)
  TEAE: Musculoskeletal chest pain: 0 n (%)
  TEAE: Myalgia: 0 n (%)
  TEAE: Myocarditis: 0 n (%)
  TEAE: Nasal congestion: 0 n (%)
  TEAE: Nausea: 3 (4.1%) n (%)
  TEAE: Nephropathy: 0 n (%)
  TEAE: Nervous system disorders: 4 (5.4%) n (%)
  TEAE: Neutropenia: 1 (1.4%) n (%)
  TEAE: Neutrophil count decreased: 4 (5.4%) n (%)
  TEAE: Oedema peripheral: 0 n (%)
  TEAE: Oral herpes: 1 (1.4%) n (%)
  TEAE: Otitis media: 0 n (%)
  TEAE: Paraesthesia: 0 n (%)
  TEAE: Percussion test abnormal: 0 n (%)
  TEAE: Petechiae: 0 n (%)
  TEAE: Pharyngitis streptococcal: 0 n (%)
  TEAE: Pneumonia chlamydial: 0 n (%)
  TEAE: Protein urine: 0 n (%)
  TEAE: Protein urine present: 0 n (%)
  TEAE: Proteinuria: 0 n (%)
  TEAE: Pruritus: 0 n (%)
  TEAE: Psychiatric disorders: 3 (4.1%) n (%)
  TEAE: Rash: 0 n (%)
  TEAE: Red blood cells urine: 0 n (%)
  TEAE: Renal and urinary disorders: 1 (1.4%) n (%)
  TEAE: Renal failure: 0 n (%)
  TEAE: Renal failure chronic: 0 n (%)
  TEAE: Renal impairment: 0 n (%)
  TEAE: Respiratory, thoracic and mediastinal disorders: 2 (2.7%) n (%)
  TEAE: Rhonchi: 0 n (%)
  TEAE: Sensation of foreign body: 0 n (%)
  TEAE: Sinus bradycardia: 0 n (%)
  TEAE: Sinus congestion: 0 n (%)
  TEAE: Sinus tachycardia: 0 n (%)
  TEAE: Sinusitis: 0 n (%)
  TEAE: Skin and subcutaneous tissue disorders: 2 (2.7%) n (%)
  TEAE: Sleep disorder: 1 (1.4%) n (%)
  TEAE: Sleep terror: 0 n (%)
  TEAE: Syncope: 0 n (%)
  TEAE: Tachycardia: 0 n (%)
  TEAE: Thrombocytopenia: 0 n (%)
  TEAE: Tinnitus: 0 n (%)
  TEAE: Tongue discolouration: 0 n (%)
  TEAE: Tremor: 0 n (%)
  TEAE: Upper respiratory tract infection: 0 n (%)
  TEAE: Urinary tract infection: 0 n (%)
  TEAE: Urine ketone body present: 0 n (%)
  TEAE: Vascular disorders: 0 n (%)
  TEAE: Vertigo: 0 n (%)
  TEAE: Vomiting: 3 (4.1%) n (%)
  TEAE: Wheezing: 1 (1.4%) n (%)
  TEAE: White blood cell count decreased: 1 (1.4%) n (%)
  Worst grade 1 or 2 TEAE: 34 (45.9%)
  Worst grade 3 TEAE: 5 (6.8%)
  Worst grade 3 or 4 TEAE: 5 (6.8%)
  Worst grade 4 TEAE: 0
Compound (1) 300 mg bid
  subjects with nausea: 4.1%
  subjects with treatment-emergent diarrhea: 6.8%
Compound (1) 600 mg bid
  severe events considered possibly related to trial medication: blood creatine phosphokinase increased and diarrhea
  subjects with nausea: 4.1%
  subjects with treatment-emergent diarrhea: 27.0%
Compound (1) 600 mg bid, one subject, doubtfully related according to the investigator
  treatment-emergent serious adverse event (SAE): an SAE of moderate increased alanine aminotransferase; also recorded: a moderate treatment-emergent AE (TEAE) of increased alanine aminotransferase
Clinical study, 300 or 600 mg bid
  overall safety and tolerability: generally safe and well tolerated
